What was measured:
Details in all cases: 72 h
Caco-2 [1] = experiment: cell viability relative to DMSO; higher = less toxic
Calu-3 [2] = experiment: as above
HepG2 [3] = experiment: as above
U2OS [4] = experiment: as above
Vero E6 [5] = experiment: as above
Caco-2 [6] = experiment: relative viability EC50 (midpoint between 100% and the lowest measured viability); higher = less toxic
Calu-3 [7] = experiment: as above
HepG2 [8] = experiment: as above
U2OS [9] = experiment: as above
Vero E6 [10] = experiment: as above
Caco-2 [11] = experiment: drug sensitivity score (DSS) for viability; higher = more toxic; extreme values may be limits of the assay
Calu-3 [12] = experiment: as above
HepG2 [13] = experiment: as above
U2OS [14] = experiment: as above
Vero E6 [15] = experiment: as above

SMILES | cell viability (Caco-2 [1]; 1 nM) | cell viability (Caco-2 [1]; 10 nM) | cell viability (Caco-2 [1]; 100 nM) | cell viability (Caco-2 [1]; 1000 nM) | cell viability (Caco-2 [1]; 10000 nM) | cell viability (Calu-3 [2]; 1 nM) | cell viability (Calu-3 [2]; 10 nM) | cell viability (Calu-3 [2]; 100 nM) | cell viability (Calu-3 [2]; 1000 nM) | cell viability (Calu-3 [2]; 10000 nM) | cell viability (HepG2 [3]; 1 nM) | cell viability (HepG2 [3]; 10 nM) | cell viability (HepG2 [3]; 100 nM) | cell viability (HepG2 [3]; 1000 nM) | cell viability (HepG2 [3]; 10000 nM) | cell viability (U2OS [4]; 1 nM) | cell viability (U2OS [4]; 10 nM) | cell viability (U2OS [4]; 100 nM) | cell viability (U2OS [4]; 1000 nM) | cell viability (U2OS [4]; 10000 nM) | cell viability (Vero E6 [5]; 1 nM) | cell viability (Vero E6 [5]; 10 nM) | cell viability (Vero E6 [5]; 100 nM) | cell viability (Vero E6 [5]; 1000 nM) | cell viability (Vero E6 [5]; 10000 nM) | relative viability EC50 (Caco-2 [6]) | relative viability EC50 (Calu-3 [7]) | relative viability EC50 (HepG2 [8]) | relative viability EC50 (U2OS [9]) | relative viability EC50 (Vero E6 [10]) | drug sensitivity score (Caco-2 [11]) | drug sensitivity score (Calu-3 [12]) | drug sensitivity score (HepG2 [13]) | drug sensitivity score (U2OS [14]) | drug sensitivity score (Vero E6 [15])
COc1ccccc1Oc1c(NS(=O)(=O)c2ccc(C)cn2)nc(-c2ccncc2)nc1OC [SPP301] | 93.2% | 100% | 105% | 106% | 84.4% | 85.6% | 96.1% | 93.4% | 99% | 98% | 106% | 92.6% | 93.2% | 95.1% | 101% | 99.9% | 102% | 98.8% | 100% | 95.4% | 102% | 102% | 105% | 94.3% | 102% | > 10 µM | > 10 µM | > 10 µM | > 10 µM | > 10 µM | 0.1 | 0 | 0 | 0 | 0
CC(=O)Nc1cccc(Nc2ncnc(N3CCC(OCc4ccc(OC(F)(F)F)cc4)CC3)n2)c1C [TC-N-1752] | 94.7% | 97.8% | 94.5% | 101% | 80.4% | 93.9% | 102% | 87.1% | 97.8% | 107% | 105% | 95.8% | 93% | 104% | 31.5% | 96% | 98.7% | 95.2% | 94.4% | 99.3% | 95.8% | 102% | 100% | 94.4% | 107% | > 10 µM | > 10 µM | 3.47 µM | > 10 µM | > 10 µM | 0.5 | 0 | 3.4 | 0 | 0
Clc1ccc(C2=CCC[C@H]3CC[C@@H]2N3)cn1 [UB-165] | 92.2% | 97.7% | 96.8% | 93% | 102% | 108% | 107% | 91.3% | 93.2% | 100% | 98.2% | 97% | 93.1% | 95.5% | 102% | 101% | 107% | 97.1% | 97.5% | 102% | 101% | 102% | 95.6% | 100% | 103% | > 10 µM | > 10 µM | > 10 µM | > 10 µM | > 10 µM | 0 | 0 | 0 | 0 | 0
Cc1ccc(S(=O)(=O)Nc2nc3ccccc3nc2Nc2ccc3nsnc3c2)cc1 [XL147] | 96.1% | 107% | 98.6% | 105% | 92.9% | 93.3% | 113% | 98.6% | 88.6% | 97.6% | 107% | 101% | 90.9% | 97.7% | 99.5% | 96% | 103% | 104% | 99.2% | 95.1% | 93.7% | 94.1% | 100% | 96.3% | 95.2% | > 10 µM | > 10 µM | > 10 µM | > 10 µM | > 10 µM | 0 | 0.4 | 0 | 0 | 0
